Experimental data published in patent US5736568A, “2-(aminoalkoxy) phenylalkylamines with antiinflammatory activity” (Knoll Aktiengesellschaft, priority 1994, dated 1998).
pIC50: −log10 of the molar value.

Legend:
[1] = test system: carrageenan-induced pleurisy; experiment: Test C: Carrageenan-induced pleurisy in rats; assay type: in vivo, rat; conditions: 24 h and 48 h, leukocytes harvested at 72 h; for activity in Test C at 10 mg/kg or less: 10 mg/kg or less p.o. at challenge; for activity in Test C at 30 mg/kg: 30 mg/kg p.o. at challenge
Protocol: The most advantageous compounds of formula I were active in Test A and also in the following test. Carrageenan-induced pleurisy in rats was carried out as described by Ackerman et al. J. Pharmacol. Exp. Therap. 1980, 215, 588-595. Migrating leukocytes were harvested by lavage of the thoracic cavity 72 h after injection of 0.3 ml 1% λ-carrageenan in sterile isotonic saline. Test compounds were administered p.o. at the time of challenge and 24 h and 48 h thereafter.

[2] = test system: arachidonic acid release from zymosan stimulated macrophages; experiment: Test A: Inhibition of Arachidonic Acid Release from Zymosan Stimulated Macrophages; assay type: cell-based, mice (female MF1); conditions: Mus musculus, Macrophage; peritoneal macrophages labelled with [3H]-arachidonic acid, zymosan stimulus, 5 h; tested at 100, 50, 20, 10, 5 and 1 μM
Protocol: Test A was carried out in the following way:
Inhibition of Arachidonic Acid Release from Zymosan Stimulated Macrophages
Female MF1 mice (weighing 20 to 25 g) were killed using a rising concentration of CO2. The mice were laid on their backs and the abdomens wiped with 70% alcohol. The skin was pulled back, exposing the peritoneal wall. Medium A (5 ml) (see below) was injected into the peritoneal cavity of each mouse followed by approximately 1 ml of air using a 20 ml syringe and a 21 G×40 mm needle in order to form a suspension of macrophage cells. The medium and cells were then removed using a 19 G×40 mm needle. The resulting suspension was returned to a sterile beaker kept on ice. The extracts from all the mice were pooled and this pooled cell suspension was counted using a Coulter counter and adjusted to a final cell count of 1-1.3×10^6 cells/ml prior to labelling with [^3 H]-arachidonic acid. Typically five mice provided sufficient cells for each multiwell plate.
Sufficient [^3 H]-arachidonic acid in ethanol to give a final concentration of 1.6 μCi/ml (equivalent to 40 μCi/plate) was blown to dryness under nitrogen. The arachidonic acid was then resuspended in 1 or 2 ml of the cell suspension which was then mixed with the remainder of the cell suspension in a centrifuge bottle.
The following day, non-adherent cells were removed by washing 3 times with sterile phosphate buffered saline (PBS). The adherent peritoneal macrophages were then cultured for a further 24 hours in the presence or absence of drugs, in medium B (see below) at 37° in a 5% CO2 atmosphere in order to measure the effects of drugs on the spontaneous release of arachidonic acid in the absence of stimulus. After this incubation, supernatants were removed to give medium 1 and stored in sealed multi-well plates at 4° C. prior to scintillation counting. […] The supernatants were replaced by fresh medium C containing fresh drug and a stimulus. Three drugs were tested at six concentrations (100, 50, 20, 10, 5 and 1 μM) in replicates of four on each plate. The other wells contained controls consisting of a positive control (e.g. dexamethasone), medium (B) only and medium C only.
Incubation was then continued for a further 5 hours, whereupon the supernatants were collected to give medium 2 and the adherent cells washed with PBS. The cells were then lysed with 100 μl of 0.1% TRITON® X100 in a 0.1% solution of bovine serum albumin in 0.9% saline and mechanically disrupted to give cell lysates. These supernatants (medium 2) and cell lysates (Cells) were also stored in sealed multi-well plates at 4° C. prior to scintillation counting. 200 μl aliquots of media, or 100 μl aliquots of cells were counted using 2 ml of OPTIPHASE "HIGH SAFE" (Trademark of LKB) as scintillant.
The percentage of arachidonic acid released was calculated using the mean values for each group of 4 wells in the following equation. [formula]
The percentage inhibition of arachidonic acid release caused by a drug may then be calculated using the following equation. [formula]
Medium A (for peritoneal lavage)
This mixture was transferred to sterile flask and made up to 400 ml with sterile water.
Medium B (for cell culture)
This mixture was transferred to a sterile beaker and made up to 650 ml with sterile water.
Medium C=medium B+stimulant (zymosan)
The zymosan stimulant was prepared as follows:--zymosan (200 mg) (supplied by Sigma) was added to PBS (20 ml). The mixture was boiled for 30 minutes and the volume restored to 20 ml with water. The zymosan was harvested by centrifugation at 500×g for 5 minutes, washed twice by resuspension in PBS (10 ml) and centrifugation. After the final separation, the zymosan was resuspended in 20 ml PBS and stored as 1 ml aliquots at -20° C.

[3] = test system: carrageenan-induced paw oedema; experiment: Test B: Carrageenan-induced rat paw oedema test; assay type: in vivo; conditions: inhibition of paw oedema, 100 mg/kg oral, 3 h after carrageenan
Protocol: Test B was carried out in the following way:
Carrageenan-induced rat paw oedema test
Female rats, weight range 125-150 g were fasted overnight. One of the hind legs of each animal was marked with a line at the connection between the cuboid/navicular and calcaneus/talus bones. Groups of six rats were orally dosed at 10 ml/kg, in random order, with a given dose of the test compound given as a solution or suspension in 10% (w/v) aqueous acacia solution.
One hour after dosing, 0.1 ml of 1% (w/v) sterile carrageenan λ in normal saline was injected deeply into the plantar surface of the marked hind foot of each rat. The volume of the foot (up to the marked line) was measured immediately after injection using duplicate water displacement readings. Three hours after injection the foot volume was measured again and the percentage increase in foot volume relative to the initial reading was calculated.
The increase in foot volume (i.e. the degree of oedema) in drug treated animals when compared with that in the drug untreated control gave the degree of inhibition of paw oedema by the drug.
Compounds were considered to be active in this test if they produced a statistically significant (typically 20% or greater) inhibition of paw oedema in at least two out of three tests after oral dosing at 100 mg/kg. Statistical significance was assessed using the Student's t test for single dose studies and Dunnett's test for multiple dose studies. More advantageous compounds were active in both Tests A and B,

| Compound | activity in Test C at 10 mg/kg or less [1] | pIC50 [2] | inhibition at 100 mg/kg [3] [%] | activity in Test C at 30 mg/kg [1] |
| --- | --- | --- | --- | --- |
| CN(C)Cc1c(Cl)cccc1OCCN(C)Cc1ccccc1 [Example 1, 2-[2-(N-benzyl-N-methylamino)ethoxy]-6-chloro-N,N-dimethylbenzylamine] | active | 4.82 | 70 |  |
| CN(C)Cc1cccc(Cl)c1OCCN(C)Cc1ccccc1 [Example 2, 2-[2-(N-Benzyl-N-methylamino)ethoxy]-3-chloro-N,N-dimethylbenzylamine] |  | 4.19 |  |  |
| CN(C)Cc1cc(F)ccc1OCCN(C)Cc1ccccc1 [Example 3, 2-[2-(N-Benzyl-N-methylamino)ethoxy]-5-fluoro-N,N-dimethylbenzylamine] |  | 4.70 | 52 | active |
| CN(C)Cc1cc(C#N)ccc1OCCN(C)Cc1ccccc1 [Example 4, 4-[2-(N-Benzyl-N-methylamino)ethoxy]-3-(dimethylaminomethyl)benzonitrile] |  | 4.22 |  |  |
| CN(C)Cc1cc(Cl)c(Cl)cc1OCCN(C)Cc1ccccc1 [Example 5, 2-[2-(N-Benzyl-N-methylamino)ethoxy]-4,5-dichloro-N,N-dimethylbenzylamine] |  | 4.92 | 6 |  |
| CN(C)Cc1ccc(Cl)cc1OCCN(C)Cc1ccccc1 [Example 6, 2-[2-(N-Benzyl-N-methylamino)ethoxy]-4-chloro-N,N-dimethylbenzylamine] |  | 4.82 | 18 | active |
| CN(C)Cc1cc(C(F)(F)F)ccc1OCCN(C)Cc1ccccc1 [Example 7, 2-[2-(N-Benzyl-N-methylamino)ethoxy]-N,N-dimethyl-5-trifluoromethylbenzylamine] |  | 4.70 | 18 |  |
| CN(C)Cc1c(OCCN(C)Cc2ccccc2)ccc2ccccc12 [Example 8, N-Benzyl-2-[1-(dimethylaminomethyl)naphth-2-yloxy]-N-methylethylamine] |  | 4.89 | 23 | active |
| CN(C)Cc1cc(Cl)ccc1OCCNCc1ccccc1 [Example 9, 2-[2-(Benzylamino)ethoxy]-5-chloro-N,N-dimethylbenzyl-amine] |  | 5.05 | 56 |  |
| CN(C)Cc1cc(Cl)ccc1OCCN(C)Cc1ccc(C#N)cc1 [Example 10, 4-{N-[2-(4-Chloro-2-dimethylaminomethylphenoxy)ethyl]-N-[methyl]aminomethyl}benzonitrile] |  | 4.33 |  |  |
| CN(C)Cc1ccccc1OCCN(C)Cc1ccccc1Cl [Example 14, 2-{2-[N-(2-Chlorobenzyl)-N-methylamino]ethoxy}-N,N-dimethylbenzylamine] | active | 4.35 |  |  |
| CN(C)Cc1cc(Cl)ccc1OCCN1CCCCC1 [Example 16, 5-Chloro-2-(2-piperidinoethoxy)-N,N-dimethylbenzylamine] |  | 4.59 |  |  |
| COc1ccc(CN(C)C)c(OCCN(C)Cc2ccccc2)c1 [Example 18, 2-[2-(N-Benzyl-N-methylamino)ethoxy]-4-methoxy-N,N-dimethylbenzylamine] |  | 4.62 |  |  |
| CCN(CC)CCOc1ccccc1CN(C)C [Example 19, 2-(2-diethylaminoethoxy)-N,N-dimethylbenzylamine] |  | 4.19 |  |  |
| CN(C)CCOc1ccccc1CN(C)C [Example 23, 2-(2-dimethylaminoethoxy)-N,N-dimethylbenzylamine] |  | 4.21 |  |  |
| CN(C)CCCOc1ccccc1CN(C)C [Example 24, N,N-dimethyl-2-(3-dimethylaminopropoxy) benzylamine] |  | 4.30 |  |  |
| CCN(CC)CCOc1ccc(Cl)cc1CN(C)C [Example 25] |  | 4.52 | 22 |  |
| COC(=O)c1ccc(OCCN(C)Cc2ccccc2)c(CN(C)C)c1 [Example 26, methyl 4-[2-(N-benzyl-N-methylamino)ethoxy]-3-(dimethylaminomethyl) benzoate] |  | 4.48 |  |  |
| COc1ccc(OCCN(C)Cc2ccccc2)c(CN)c1 [Example 27, 2-[2-(N-benzyl-N-methylamino)ethoxy]-5-methoxybenzylamine] |  | 4.47 |  |  |
| CN(CCOc1ccc(Cl)cc1CN)Cc1ccccc1 [Example 28, 2-[2-(N-benzyl-N-methylamino)ethoxy]-5-chlorobenzylamine] |  | 4.74 |  |  |
| CN(CCCOc1cccc(Cl)c1CN)Cc1ccccc1 [Example 29, 2-[3-(N-benzyl-N-methylamino)propoxy]-6-chlorobenzylamine] |  | 4.82 |  |  |
| CN(C)Cc1cc(Cl)ccc1OCCN(C)Cc1ccc(C(N)=O)cc1 [Example 30, 4-{N-[2-(4-chloro-2-dimethylaminomethylphenoxy)ethyl]-N-[methyl]aminomethyl}benzamide] |  | 4.13 |  |  |
| CN(C)Cc1cc(C(N)=O)ccc1OCCN(C)Cc1ccc(Cl)cc1 [Example 31, 4-{2-[N-(4-chlorobenzyl)-N-methylamino]ethoxy}-3-(dimethylaminomethyl)benzamide] |  | 4.41 | 19 |  |
| CN(C)Cc1cc(O)ccc1OCCN(C)Cc1ccccc1 [Example 32, 4-[2-(N-benzyl-N-methylamino)ethoxy]-3-(dimethylaminomethyl)phenol] |  | 4.41 | 0 |  |
| CN(C)Cc1c(Cl)cccc1OCCN(C)Cc1ccccc1O [Example 33, 2-{N-[2-(3-chloro-2-dimethylaminomethylphenoxy)ethyl]-N-[methyl]aminomethyl}phenol] | active | 4.80 |  |  |
| COc1ccc(OCCN(C)Cc2ccccc2)c(CN(C)C)c1 [Example 34, 2-[2-(N-benzyl-N-methylamino)ethoxy]-5-methoxy-N,N-dimethylbenzylamine] |  | 4.46 |  |  |
| CN(C)Cc1c(Cl)cccc1OCCCN(C)Cc1ccccc1 [Example 35, 2-[3-(N-benzyl-N-methylamino)propoxy]-6-chloro-N,N-dimethylbenzylamine] | active | 4.48 |  |  |
| CN(C)Cc1ccccc1OCCNC(C)(C)c1ccc(Cl)cc1 [Example 36, 2-[2-(4-chloro-α,α-dimethylbenzylamino)ethoxy]-N,N-dimethylbenzylamine] | active | 5.52 |  |  |
| CN(CCOc1cccc(Cl)c1CN)Cc1ccccc1 [Example 37, 2-[2-(N-benzyl-N-methylamino)ethoxy]-6-chlorobenzylamine] | active | 4.92 |  |  |
